Results from the CombiSolv-Exp solvation set (Vermeire and Green 2021).

Assay: solvent given as SMILES

Oc1cccc2cccnc12
Conditions	solvation free energy, 298 K [kcal/mol]
in O	-6.06

COC(C)OC
Conditions	solvation free energy, 298 K [kcal/mol]
in O	-3.26

C=C(C)C(=O)OC
Conditions	solvation free energy, 298 K [kcal/mol]
in O	-2.53

Nc1cnn(-c2ccccc2)c(=O)c1Cl
Conditions	solvation free energy, 298 K [kcal/mol]
in O	-16.4

C#C
Conditions	solvation free energy, 298 K [kcal/mol]
in C1COCCO1	-1.71
in CC(C)=O	-1.83
in CC(C)CC(C)(C)C	-0.37
in CCCCCC	-0.52
in CCCCO	-0.82
in CN(C)C=O	-1.75
in CO	-1.42
in COC(C)=O	-1.76
in Cc1ccc(C)cc1	-0.8
in ClC(Cl)(Cl)Cl	-0.65
in O	0

CCC1(c2ccccc2)C(=O)NC(=O)NC1=O
Conditions	solvation free energy, 298 K [kcal/mol]
in O	-15.4

CCCCCCCCCCCCCC(=O)OC
Conditions	solvation free energy, 298 K [kcal/mol]
in O	-1.14

c1ccc2cc3c(ccc4ccccc43)cc2c1
Conditions	solvation free energy, 298 K [kcal/mol]
in O	-6.26

C=CC(C)=CCCC(=C)C
Conditions	solvation free energy, 298 K [kcal/mol]
in O	-0.55

C=C(C)c1ccccc1
Conditions	solvation free energy, 298 K [kcal/mol]
in CC(C)=O	-6.37
in O	-1.28

FCF
Conditions	solvation free energy, 298 K [kcal/mol]
in CCCCCCCCC	-0.37
in CCCCCCCCO	-0.57
in CN1CCCC1=O	-1.69
in CN(C)C=O	-1.69
in O	-0.33

CCCc1ccc(O)cc1
Conditions	solvation free energy, 298 K [kcal/mol]
in O	-5.21

C=CC(C)C
Conditions	solvation free energy, 298 K [kcal/mol]
in CC(=O)N(C)C	-2.13
in CC(C)CC(C)(C)C	-2.87
in CCC(C)=O	-2.71
in CCCCCCC	-2.96
in CCCCCCCC	-2.92
in CCCCO	-2.5
in CCNC(C)=O	-2.26
in CCOC(C)=O	-2.74
in CN1CCCC1=O	-2.03
in CN(C)C=O	-2.09
in CNC(C)=O	-2.14
in CNC=O	-1.75
in Cc1ccc(C)cc1	-3.31
in ClCCCl	-2.71
in O	1.84
in O=C1CCCCC1	-2.61

CCCCCCCCC
Conditions	solvation free energy, 298 K [kcal/mol]
in Brc1ccccc1	-5.75
in C1CCCCC1	-6.23
in C1CCOC1	-5.94
in C1COCCO1	-5.1
in C=CCCCC	-6.1
in C=CCCCCCC	-5.95
in C=CCCCCCCCC	-5.89
in CC1COC(=O)O1	-3.44
in CC#N	-4.12
in CC(=O)N(C)C	-4.53
in CC(=O)O	-4.5
in CC(=O)c1ccccc1	-4.92
in CC(C)=O	-4.99
in CC(C)CC(C)(C)C	-5.95
in CC(C)CCCC(C)CCCC(C)CCCCC(C)CCCC(C)CCCC(C)C	-5.5
in CC(C)CCO	-5.21
in CC(C)O	-5.01
in CC(C)OC(C)C	-5.88
in CCBr	-5.96
in CCC#N	-4.68
in CCC(C)=O	-5.31
in CCCC#N	-5.01
in CCCC(=O)OCC	-5.57
in CCCC(C)=O	-5.41
in CCCCC	-6.12
in CCCCCC	-6.12
in CCCCCC(C)=O	-5.45
in CCCCCCC	-6.06
in CCCCCCCC	-5.98
in CCCCCCCCCC	-5.88
in CCCCCCCCCCCC	-5.79
in CCCCCCCCCCCCCCCC	-5.68
in CCCCCCCCO	-5.29
in CCCCCCOC(C)=O	-5.56
in CCCCO	-5.09
in CCCCOC(C)=O	-5.48
in CCCCOCCCC	-5.95
in CCCO	-4.94
in CCN(CC)CC	-6.06
in CCO	-4.84
in CCOC(=O)c1ccccc1C(=O)OCC	-4.53
in CCOC(C)=O	-5.32
in CCOCC	-5.97
in CCOCCOCCOCC	-5.25
in CCOc1ccccc1	-5.42
in CN1CCCC1=O	-4.3
in CN(C)C=O	-4.3
in CN(C)P(=O)(N(C)C)N(C)C	-4.86
in CNC=O	-3.82
in CO	-4.4
in COC(C)=O	-5.07
in COCCO	-4.28
in COc1ccccc1	-5.35
in CS(C)=O	-3.24
in Cc1ccc(C)cc1	-5.93
in Cc1ccccc1	-5.95
in Cc1ccccn1	-5.45
in ClC(Cl)(Cl)Cl	-6.2
in ClC(Cl)Cl	-6.04
in ClCCCl	-5.32
in ClCCl	-5.72
in Clc1ccccc1	-5.97
in FC(F)(F)C(F)(F)C(F)(F)C(F)(F)C(F)(F)C(F)(F)C(F)(F)C(F)(F)F	-3.92
in FC(F)(F)C(F)(F)C(F)(F)C(F)(F)C(F)(F)C(F)(F)F	-3.96
in Fc1ccccc1	-5.76
in ICI	-3.73
in N#CCCCCC#N	-3.46
in N#Cc1ccccc1	-4.97
in NC=O	-1.66
in NCCO	-2.24
in Nc1ccccc1	-4.09
in O	2.98
in O=C1CCCCC1	-5.24
in O=C1CCCO1	-3.71
in O=CN1CCOCC1	-3.47
in OCCO	-2.03
in OCCOCCO	-2.76
in OCCOCCOCCO	-2.92
in OCCOCCOCCOCCO	-3.13
in OCc1ccccc1	-4.36
in S=C=S	-6.17
in c1ccccc1	-5.89
in c1ccncc1	-5.13

CCC(C)C(C)C (configuration not stated)
Conditions	solvation free energy, 298 K [kcal/mol]
in C=CCCCCCCCCCCCCCC	-3.97
in CC#N	-3.2

CCCCN(CC)C(=O)SCCC
Conditions	solvation free energy, 298 K [kcal/mol]
in O	-3.64

O=C(O)c1cccc([N+](=O)[O-])c1
Conditions	solvation free energy, 298 K [kcal/mol]
in C1CCOC1	-12.5
in C1COCCO1	-12.2
in CC(C)(C)O	-12.4
in CC(C)CCO	-11.8
in CC(C)CO	-12.1
in CC(C)O	-12.4
in CCC(C)O	-12.3
in CCCC(C)O	-12.2
in CCCCCCCCCCO	-11.8
in CCCCCCCCO	-11.9
in CCCCCCCO	-11.9
in CCCCCCO	-12
in CCCCCO	-12.1
in CCCCO	-12.2
in CCCCOC(C)=O	-11.6
in CCCO	-12.3
in CCO	-12.5
in CCOC(C)=O	-11.9
in CCOCC	-12.1
in CO	-12.7
in COC(C)=O	-12.1
in O	-9.45

CCOc1ccc(C(=O)N(O)c2ccc(C)cc2)cc1
Conditions	solvation free energy, 298 K [kcal/mol]
in O	-12.4

C=CC=CCC
Conditions	solvation free energy, 298 K [kcal/mol]
in C=CCCCCCCCCCCCCCC	-3.64
in CN1CCCC1=O	-3.67
in O	0.75

Cc1ccccc1C(C)C
Conditions	solvation free energy, 298 K [kcal/mol]
in O	-0.82

C#CCCCCC
Conditions	solvation free energy, 298 K [kcal/mol]
in C1CCC2CCCCC2C1	-4.37
in C1CCC(C2CCCCC2)CC1	-4.33
in CN(C)C=O	-4.37
in CS(C)=O	-3.95
in N#CCCCCC#N	-3.83
in NCCO	-2.8
in O	0.59
in O=Cc1ccco1	-4.12
in OCc1ccco1	-3.93
in c1ccc2c(c1)CCCC2	-4.66
in c1ccc(C2CCCCC2)cc1	-4.56
